Patent US6716826B2, “Compounds and their uses” (Rodaris Pharmaceuticals Limited, priority 2000, dated 2004)

Key:
[1] = test system: PKA; assay: PKA inhibition assay; format: biochemical
Description: (§1) Methods for obtaining A-type and P-type mediators are set out in Caro et al, 1997, and in WO98/11116 and WO98/11117. Protocols for determining characteristic IPG biological activities such as PDH activation, PKA inhibition, acetylCoA activation, fructose-1,6-bis-phosphatase activity and lipogenesis are well known in the art, e.g. as described in Caro et al ^[14].
(§2) The compounds of the invention can be tested for one or more the characteristic IPGP and/or IPG-A activities mentioned above to determine whether they will be suitable for use a IPG mimetics or antagonists. Preferred assays measure the effect of the compounds on PDH phosphatasc, PKA or lipogenesis. Protocols for these assays are provided in Caro et al ^[14].

[2] = test system: PDH phosphatase; assay: PDH activation assay; format: biochemical
Description: as §1, §2

Structure (SMILES)	PKA inhibition at 0.1 μM [1]	PDH activation at 100 μM [2]
NC1C(OC2C(O)C(O)C(O)C(O)C2O)OC(CO)C(OC2OC(CO)C(O)C(O)C2O)C1O [RGL1014, O-α-D-Galactopyranosyl-(1-4)-(2-amino-2-deoxy-α-D-glucopyranosyl)-(1-6)-D-myo-inositol]	2%	
NC1C(OC2C(O)C(O)C(O)C(O)C2O)OC(CO)C(OC2OC(CO)C(O)C(O)C2O)C1O [RGL1021, O-(α-D-galactopyranosyl)-(1-4)-(2-amino-2-deoxy-α-D-glucopyranosyl)-(1-6)-D-chiro-inositol]		14%
NC1C(OC2C(O)C(O)C(O)C(O)C2OP(=O)(O)O)OC(CO)C(OC2OC(CO)C(O)C(O)C2O)C1O [RGL1022, O-α-D-galactopyranosyl-(1-4)-2-ammonio-2-deoxy-α-D-glucopyranosyl-(1-6)-D-chiro-inositol-1-phosphate]	47%	
